Where two headings read alike, the source gives them in different places.
Assays:
[1] = tested on: colonic Treg (cTreg); test: Antibiotic (vancomycin) treatment of SPF mice with or without SCFA; format: in vivo; conditions: SPF mice, vancomycin alone in drinking water
Procedure: Science 341: 1645 (2013). […] The crude cell suspension was loaded onto a 40%/90% Percoll (GE Healthcare) gradient and centrifuged at 720 x g for 25 min at room temperature with acceleration and brake turned off. LP lymphocytes were collected from the 40%/90% interface. Intracellular staining of the transcription factors Foxp3, Helios and T-bet was performed using the Foxp3 Fix/Perm Buffer Set (Biolegend). For detection of intracellular cytokines, cells were first stimulated for 4 h with 50 ng/ml PMA and 1 μg/ml ionomycin in the presence of Brefeldin A (All obtained from Sigma), followed by staining for surface markers. Cells were then fixed and permeabilized using the Foxp3 Fix/Perm Buffer Set (Biolegend) and stained for intracellular cytokines. The following antibodies were used: […] All antibodies were obtained from Biolegend unless otherwise noted. Flow cytometry was performed using LSRII and data were analyzed with FlowJo software (TreeStar, Inc.). Cell sorting was performed using a […] at the Dana-Farber Cancer Institute Flow Cytometry Core.

[2] = Stability of SCFA mix in mouse water bottle over time; format: physicochemical; conditions: for SCFA mix in mouse water bottle over time, Day 1 / SCFA mix in mouse water bottle over time, Day 4 / SCFA mix in mouse water bottle over time, Day 7 / SCFA mix in mouse water bottle over time, Day 10 / SCFA mix in mouse water bottle over time, Day 14 / SCFA mix in mouse water bottle over time, Day 90: input 200 mM
[3] = mouse, in vivo

SMILES | SCFA mix in mouse water bottle over time, Input (Day 0) [2] [mM] | SCFA mix in mouse water bottle over time, Day 1 [2] [mM] | SCFA mix in mouse water bottle over time, Day 4 [2] [mM] | SCFA mix in mouse water bottle over time, Day 7 [2] [mM] | SCFA mix in mouse water bottle over time, Day 10 [2] [mM] | SCFA mix in mouse water bottle over time, Day 14 [2] [mM] | SCFA mix in mouse water bottle over time, Day 90 [2] [mM] | SCFA levels, SPF SI [3] [µmol/g] | SCFA levels, cecal contents, ASF [3] [µmol/g] | SCFA levels, cecal contents, GF [3] [µmol/g] | SCFA levels, cecal contents, SPF [3] [µmol/g] | further results
CN[C@H](CC(C)C)C(=O)N[C@H]1C(=O)N[C@@H](CC(N)=O)C(=O)N[C@H]2C(=O)N[C@H]3C(=O)N[C@H](C(=O)N[C@H](C(=O)O)c4cc(O)cc(O)c4-c4cc3ccc4O)[C@H](O)c3ccc(c(Cl)c3)Oc3cc2cc(c3O[C@@H]2O[C@H](CO)[C@@H](O)[C@H](O)[C@H]2O[C@H]2C[C@](C)(N)[C@H](O)[C@H](C)O2)Oc2ccc(cc2Cl)[C@H]1O [vancomycin, reference compound] | – | – | – | – | – | – | – | – | – | – | – | cTreg level [1]: reduced
CCCC(=O)O [Butyrate, butyric acid] | 200 | 203.09 | 202.85 | 202.27 | 202.69 | 202.19 | 38 | 7.183 ± 2.39 | 16.89 ± 1.46 | 2.13 ± 0.598 | 18.52 ± 4.92 | SCFA levels, cecal contents, SPF + B ([3]; BALB/c, 2 weeks): 29.78 ± 6.202 µmol/g; SCFA levels, cecal contents, GF + B ([3]; BALB/c, 21 days): 11.46 ± 1.46 µmol/g; SCFA levels, cecal contents, GF + Mic ([3]; BALB/c, 21 days): 20.6 ± 3.96 µmol/g; SCFA levels, SPF SI + P ([3]; 2 weeks): 6.45 ± 2.11 µmol/g; SCFA levels, cecal contents, SPF + Vanco ([3]; 4 weeks): 1.04 ± 0.903 µmol/g
CC(=O)O [Acetate, acetic acid] | 200 | 195 | 220.1 | 192.2 | 196.3 | 202.5 | 56.1 | 15.19 ± 9.2 | 28.69 ± 8.32 | 2.82 ± 0.534 | 40.66 ± 5.86 | SCFA levels, SPF SI + P [3]: 15.46 ± 3.69 µmol/g; SCFA levels, cecal contents, GF + A [3]: 16.18 ± 4.65 µmol/g; SCFA levels, cecal contents, GF + Mic [3]: 20.83 ± 0.47 µmol/g; SCFA levels, cecal contents, SPF + A [3]: 53.95 ± 1.91 µmol/g; SCFA levels, cecal contents, SPF + Vanco [3]: 8.63 ± 1.73 µmol/g
